Where two headings read alike, the source gives them in different places. *1 amine or outer side, *2 acyl side, *3 side chain or, on linkers, in order; H or OH if unused. Where a SMILES comes first, the peptide text is derived from it. Bridges are numbered along the chain shown (N, C = ends). [ ]: non-standard residue; d: D form. ξ: configuration not given here. Trp(1-CH2COOH) = N[C@@H](Cc1cn(CC(=O)O)c2ccccc12)C(=O)O; Phe(3,4,5-F3) = N[C@@H](Cc1cc(F)c(F)c(F)c1)C(=O)O; Phe(3,4-(OMe)2) = COc1ccc(C[C@H](N)C(=O)O)cc1OC; Trp(1-Me) = Cn1cc(C[C@H](N)C(=O)O)c2ccccc21; NMePhe(4-F) = CN[C@@H](Cc1ccc(F)cc1)C(=O)O; Phe(4-F) = N[C@@H](Cc1ccc(F)cc1)C(=O)O; Pro(4R-Me) = C[C@H]1CN[C@H](C(=O)O)C1; d(cisHyp) = O=C(O)[C@H]1C[C@@H](O)CN1; Hyp = O=C(O)[C@@H]1C[C@@H](O)CN1; NMeF = CN[C@@H](Cc1ccccc1)C(=O)O; X1 = O=C([C@H]1COCCN1[*:1])[*:2]; dHyp = O=C(O)[C@H]1C[C@H](O)CN1; NMeNle = CCCC[C@H](NC)C(=O)O; Pip = O=C(O)[C@@H]1CCCCN1; dPip = O=C(O)[C@H]1CCCCN1; hSer = N[C@@H](CCO)C(=O)O; NMeA = CN[C@@H](C)C(=O)O; Orn = NCCC[C@H](N)C(=O)O; Dab = NCC[C@H](N)C(=O)O; Dap = NC[C@H](N)C(=O)O; ξC = NC(CS)C(=O)O; Sar = CNCC(=O)O
Biological target: T1, Human PD-L1/PD-1 (Homo sapiens, UniProt Q9NZQ7)
T1 construct: TVMV protease cleavage site (C); made in house; host or cells: HEK293T cells
T1 sequence (Q9NZQ7 with tags, fused parts or gaps): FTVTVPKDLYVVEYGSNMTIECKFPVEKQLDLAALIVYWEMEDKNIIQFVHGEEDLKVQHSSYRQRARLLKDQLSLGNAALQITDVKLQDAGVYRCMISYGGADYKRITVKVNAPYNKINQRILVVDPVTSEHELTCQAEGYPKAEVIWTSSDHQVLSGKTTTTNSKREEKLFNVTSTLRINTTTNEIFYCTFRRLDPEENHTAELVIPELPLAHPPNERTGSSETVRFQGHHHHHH
Assay: HTRF Human PD-L1/PD-1 binding assay (PD-1-Ig/PD-L1-His)
Conditions: PD-L1-His 10 nM, PD-1-Ig 20 nM
Method in brief: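 Step 1: compound with PD-L1-His (10 nM final), 15 min. Step 2: PD-1-Ig (20 nM final), 15 min. Step 3: Eu-cryptate anti-Ig (1 nM) plus APC anti-His (20 nM), 30 min equilibration. Signal taken as 665 nm/620 nm ratio.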

[1] = class symbol, read-out: HTRF Human PD-L1/PD-1 Binding Assay IC50 Range

## CCCC[C@H]1C(=O)N(C)[C@@H](CCCC)C(=O)N[C@@H](CCCNC(=N)N)C(=O)N[C@H](C(=O)NCC(N)=O)CSCC(=O)N[C@@H](Cc2ccc(OC)c(OC)c2)C(=O)N(C)[C@@H](C)C(=O)N[C@@H](CC(N)=O)C(=O)N2CCC[C@H]2C(=O)N[C@@H](Cc2cnc[nH]2)C(=O)N[C@@H](CC(C)C)C(=O)N2C[C@H](O)C[C@H]2C(=O)N[C@@H](Cc2c[nH]c3ccccc23)C(=O)N[C@@H](CO)C(=O)N[C@@H](Cc2c[nH]c3ccccc23)C(=O)N1C [Example 7072] ({CH2CO}-[Phe(3,4-(OMe)2)][NMeA]NPHL[Hyp]WSW[NMeNle][NMeNle]RCG-NH2; thioether N-14)
[1]
  IC50: 1 to 9.9 nM

## CCCC[C@H]1C(=O)N(C)[C@@H](CCCC)C(=O)N[C@@H](CCC(=O)O)C(=O)NC(C(=O)NCC(N)=O)CSCC(=O)N[C@@H](Cc2ccc(O)cc2)C(=O)N(C)[C@@H](C)C(=O)N[C@@H](CC(N)=O)C(=O)N2CCC[C@H]2C(=O)N[C@@H](Cc2c[nH]cn2)C(=O)N[C@@H](CC(N)=O)C(=O)N2C[C@H](O)C[C@H]2C(=O)N[C@@H](Cc2c[nH]c3ccccc23)C(=O)N[C@@H](CCN)C(=O)N[C@@H](Cc2c[nH]c3ccccc23)C(=O)N1C (stereo partly drawn) [Example 9183] ({CH2CO}-Y[NMeA]NPHN[Hyp]W[Dab]W[NMeNle][NMeNle]E[ξC]G-NH2; thioether N-14)
[1]
  IC50: 1 to 9.9 nM

## CCCC[C@H]1C(=O)N(C)CC(=O)N[C@@H](CC(=O)O)C(=O)N[C@@H](C(C)C)C(=O)N[C@@H](Cc2c[nH]c3ccccc23)C(=O)N[C@@H](Cc2ccc(O)cc2)C(=O)N(C)CC(=O)N[C@@H](Cc2c[nH]c3ccccc23)C(=O)N[C@@H](Cc2ccc(O)cc2)C(=O)N[C@@H](CC(C)C)C(=O)N[C@H](C(=O)NCC(N)=O)CSCC(=O)N[C@@H](Cc2ccccc2)C(=O)N(C)[C@@H](Cc2ccccc2)C(=O)N1C [Example 3232] ({CH2CO}-F[NMeF][NMeNle][Sar]DVWY[Sar]WYLCG-NH2; thioether N-13)
[1]
  IC50: 1000 to 10000 nM

## CCCC[C@H]1C(=O)N2C[C@H](O)C[C@@H]2C(=O)N[C@@H](CC(=O)O)C(=O)N[C@@H](C(C)C)C(=O)N(C)[C@@H](Cc2ccccc2)C(=O)N[C@@H](CC(=O)O)C(=O)N2C[C@H](O)C[C@@H]2C(=O)N[C@@H](Cc2c[nH]c3ccccc23)C(=O)N[C@@H](Cc2ccc(O)cc2)C(=O)N[C@@H](CCC(N)=O)C(=O)N[C@H](C(=O)NCC(N)=O)CSCC(=O)N[C@@H](Cc2cc(F)c(F)c(F)c2)C(=O)N(C)[C@@H](Cc2ccccc2)C(=O)N1C [Example 9351] ({CH2CO}-[Phe(3,4,5-F3)][NMeF][NMeNle][d(cisHyp)]DV[NMeF]D[d(cisHyp)]WYQCG-NH2; thioether N-13)
[1]
  IC50: 10 to 99.9 nM

## CCCC[C@H]1C(=O)N2C[C@H](O)C[C@@H]2C(=O)N[C@@H](CC(=O)O)C(=O)N[C@@H](C(C)C)C(=O)N(C)[C@@H](Cc2ccccc2)C(=O)N[C@@H](CCC(N)=O)C(=O)N2C[C@H](O)C[C@@H]2C(=O)N[C@@H](Cc2c[nH]c3ccccc23)C(=O)N[C@@H](Cc2ccc(O)cc2)C(=O)N[C@@H](CCCCN)C(=O)N[C@H](C(=O)NCC(N)=O)CSCC(=O)N[C@@H](Cc2cc(F)c(F)c(F)c2)C(=O)N(C)[C@@H](Cc2ccccc2)C(=O)N1C [Example 9353] ({CH2CO}-[Phe(3,4,5-F3)][NMeF][NMeNle][d(cisHyp)]DV[NMeF]Q[d(cisHyp)]WYKCG-NH2; thioether N-13)
[1]
  IC50: 1 to 9.9 nM

## CCCC[C@H]1C(=O)N2CCOC[C@@H]2C(=O)N[C@@H](CC(=O)O)C(=O)N[C@@H](C(C)C)C(=O)N(C)[C@@H](Cc2ccccc2)C(=O)N[C@@H](CCCN)C(=O)N2CCC[C@@H]2C(=O)N[C@@H](Cc2c[nH]c3ccccc23)C(=O)N[C@@H](Cc2ccc(O)cc2)C(=O)N[C@@H](CCOC)C(=O)N[C@H](C(=O)NCC(N)=O)CSCC(=O)N[C@@H](Cc2cc(F)c(F)c(F)c2)C(=O)N(C)[C@@H](Cc2ccccc2)C(=O)N1C [Example 10190] ({CH2CO}-[Phe(3,4,5-F3)][NMeF][NMeNle][X1]DV[NMeF][Orn][dP]WY[hSer](Me)CG-NH2; thioether N-13)
read-out: HTRF Human PD-L1/PD-1 Binding Assay IC50
  IC50: 8.2 nM

## CCCC[C@H]1C(=O)N(C)[C@@H](CCCC)C(=O)N[C@@H](CCC(=O)O)C(=O)N[C@H](C(=O)NCC(N)=O)CSCC(=O)N[C@@H](Cc2ccc(O)cc2)C(=O)N(C)[C@@H](C)C(=O)N[C@@H](CC(N)=O)C(=O)N2CCC[C@H]2C(=O)N[C@@H](Cc2cnc[nH]2)C(=O)N[C@@H](CCC(N)=O)C(=O)N2C[C@H](O)C[C@H]2C(=O)N[C@@H](Cc2c[nH]c3ccccc23)C(=O)N[C@@H](CCCCN)C(=O)N[C@@H](Cc2cn(CC(=O)O)c3ccccc23)C(=O)N1C [Example 6324] ({CH2CO}-Y[NMeA]NPHQ[Hyp]WK[Trp(1-CH2COOH)][NMeNle][NMeNle]ECG-NH2; thioether N-14)
[1]
  IC50: 1 to 9.9 nM

## CCCC[C@H]1C(=O)N2CCC[C@@H]2C(=O)N[C@@H](CC(=O)O)C(=O)N[C@@H](C(C)C)C(=O)N(C)[C@@H](Cc2ccccc2)C(=O)N[C@@H](CCC(=O)O)C(=O)N2C[C@@H](O)C[C@@H]2C(=O)N[C@@H](Cc2c[nH]c3ccccc23)C(=O)N[C@@H](Cc2ccc(O)cc2)C(=O)N[C@@H](CCCN)C(=O)N[C@H](C(=O)NCC(N)=O)CSCC(=O)N[C@@H](Cc2cc(F)c(F)c(F)c2)C(=O)N(C)[C@@H](Cc2ccccc2)C(=O)N1C [Example 9286] ({CH2CO}-[Phe(3,4,5-F3)][NMeF][NMeNle][dP]DV[NMeF]E[dHyp]WY[Orn]CG-NH2; thioether N-13)
[1]
  IC50: 1 to 9.9 nM

## CCCC[C@H]1C(=O)N(C)[C@@H](CCCC)C(=O)N[C@@H](CCC(=O)O)C(=O)N[C@H](C(=O)NCC(N)=O)CSCC(=O)N[C@@H](Cc2ccc(O)cc2)C(=O)N2CCCC[C@H]2C(=O)N[C@@H](CC(=O)O)C(=O)N2CCC[C@H]2C(=O)N[C@@H](Cc2cnc[nH]2)C(=O)N[C@@H](CCC(=O)O)C(=O)N2C[C@H](O)C[C@H]2C(=O)N[C@@H](Cc2c[nH]c3ccccc23)C(=O)N[C@@H](CO)C(=O)N[C@@H](Cc2cn(C)c3ccccc23)C(=O)N1C [Example 1505] ({CH2CO}-Y[Pip]DPHE[Hyp]WS[Trp(1-Me)][NMeNle][NMeNle]ECG-NH2; thioether N-14)
[1]
  IC50: 1 to 9.9 nM

## CCCC[C@H]1C(=O)N(C)[C@@H](CCCC)C(=O)N[C@@H](CN)C(=O)N[C@H](C(=O)NCC(N)=O)CSCC(=O)N[C@@H](Cc2ccc(O)cc2)C(=O)N2CCCC[C@H]2C(=O)N[C@@H](CC(N)=O)C(=O)N2CCC[C@H]2C(=O)N[C@@H](CN)C(=O)N[C@@H](CC(C)C)C(=O)N2C[C@H](C)C[C@H]2C(=O)N[C@@H](Cc2c[nH]c3ccccc23)C(=O)N[C@@H](CCN)C(=O)N[C@@H](Cc2cn(CC(=O)O)c3ccccc23)C(=O)N1C [Example 1291] ({CH2CO}-Y[Pip]NP[Dap]L[Pro(4R-Me)]W[Dab][Trp(1-CH2COOH)][NMeNle][NMeNle][Dap]CG-NH2; thioether N-14)
[1]
  IC50: 1 to 9.9 nM

## CCCC[C@H]1C(=O)N(C)[C@@H](CCCC)C(=O)N[C@@H](CCC(=O)O)C(=O)N[C@H](C(=O)NCC(N)=O)CSCC(=O)N[C@@H](Cc2ccc(OC)cc2)C(=O)N(C)[C@@H](C)C(=O)N[C@@H](CC(N)=O)C(=O)N2CCC[C@H]2C(=O)N[C@@H](Cc2cnc[nH]2)C(=O)N[C@@H](CCCCN)C(=O)N2C[C@H](O)C[C@H]2C(=O)N[C@@H](Cc2c[nH]c3ccccc23)C(=O)N[C@@H](CC(=O)O)C(=O)N[C@@H](Cc2c[nH]c3ccccc23)C(=O)N1C [Example 7115] ({CH2CO}-Y(Me)[NMeA]NPHK[Hyp]WDW[NMeNle][NMeNle]ECG-NH2; thioether N-14)
[1]
  IC50: 100 to 990 nM

## CCCC[C@H]1C(=O)N(C)[C@@H](CCCC)C(=O)N[C@@H](CC(C)C)C(=O)N[C@H](C(=O)NCC(N)=O)CSCC(=O)N[C@@H](Cc2ccc(OC)cc2)C(=O)N(C)[C@@H](C)C(=O)N[C@@H](CC(N)=O)C(=O)N2CCC[C@H]2C(=O)N[C@@H](CO)C(=O)N[C@@H](CCC(N)=O)C(=O)N2C[C@H](O)C[C@H]2C(=O)N[C@@H](Cc2c[nH]c3ccccc23)C(=O)N[C@@H](CO)C(=O)N[C@@H](Cc2cn(CC(=O)O)c3ccccc23)C(=O)N1C [Example 7142] ({CH2CO}-Y(Me)[NMeA]NPSQ[Hyp]WS[Trp(1-CH2COOH)][NMeNle][NMeNle]LCG-NH2; thioether N-14)
[1]
  IC50: 1 to 9.9 nM

## CCCC[C@H]1C(=O)N2CCC[C@@H]2C(=O)N[C@@H](CC(=O)O)C(=O)N[C@@H](C(C)C)C(=O)N(C)[C@@H](Cc2ccc(F)cc2)C(=O)N[C@@H](CCCN)C(=O)N2CCC[C@@H]2C(=O)N[C@@H](Cc2c[nH]c3ccccc23)C(=O)N[C@@H](Cc2ccc(O)cc2)C(=O)N[C@@H](CC(C)C)C(=O)N[C@H](C(=O)NCC(N)=O)CSCC(=O)N[C@@H](Cc2ccc(F)cc2)C(=O)N(C)[C@@H](Cc2ccccc2)C(=O)N1C [Example 10108] ({CH2CO}-[Phe(4-F)][NMeF][NMeNle][dP]DV[NMePhe(4-F)][Orn][dP]WYLCG-NH2; thioether N-13)
[1]
  IC50: 1 to 9.9 nM

## CCCC[C@H]1C(=O)N2C[C@@H](O)C[C@@H]2C(=O)N[C@@H](CC(=O)O)C(=O)N[C@@H](C(C)C)C(=O)N(C)[C@@H](Cc2ccccc2)C(=O)N[C@@H](CCC(=O)O)C(=O)N2CCCC[C@@H]2C(=O)N[C@@H](Cc2c[nH]c3ccccc23)C(=O)N[C@@H](Cc2ccc(O)cc2)C(=O)N[C@@H](CCC(N)=O)C(=O)N[C@H](C(=O)NCC(N)=O)CSCC(=O)N[C@@H](Cc2cc(F)c(F)c(F)c2)C(=O)N(C)[C@@H](Cc2ccc(F)cc2)C(=O)N1C [Example 10559] ({CH2CO}-[Phe(3,4,5-F3)][NMePhe(4-F)][NMeNle][dHyp]DV[NMeF]E[dPip]WYQCG-NH2; thioether N-13)
[1]
  IC50: 1 to 9.9 nM

## CCCC[C@H]1C(=O)N(C)[C@@H](CCCC)C(=O)N[C@@H](CCC(=O)O)C(=O)N[C@H](C(=O)NCC(N)=O)CSCC(=O)N[C@@H](Cc2ccc(O)cc2)C(=O)N(C)[C@@H](C)C(=O)N[C@@H](CC(N)=O)C(=O)N2CCC[C@H]2C(=O)N[C@@H](CO)C(=O)N[C@@H](CCC(N)=O)C(=O)N2C[C@H](O)C[C@H]2C(=O)N[C@@H](Cc2c[nH]c3ccccc23)C(=O)N[C@@H](CCC(=O)O)C(=O)N[C@@H](Cc2c[nH]c3ccccc23)C(=O)N1C [Example 5240] ({CH2CO}-Y[NMeA]NPSQ[Hyp]WEW[NMeNle][NMeNle]ECG-NH2; thioether N-14)
[1]
  IC50: 1 to 9.9 nM
